Test results as given in patent US8071600B2, “Derivatives of 4-piperazin-1-yl-4-benzo[B]thiophene suitable for the treatment of CNS disorders” (Otsuka Pharmaceutical Co., Ltd., priority 2005, dated 2011).

Assays:
[1] = target: T1, Serotonin 5-HT2A receptor (Rattus norvegicus, UniProt P14842); assay: Serotonin 5-HT2A receptor binding assay ([3H]-Ketanserin); details: Serotonin 5-HT2A receptor binding test, rat frontal cortex membrane, Ki calculated from IC50 by Cheng-Prussoff formula
T1 construct: from tissue; host or cells: Wistar rat brain, frontal cortex membranes
T1 sequence (P14842 whole entry): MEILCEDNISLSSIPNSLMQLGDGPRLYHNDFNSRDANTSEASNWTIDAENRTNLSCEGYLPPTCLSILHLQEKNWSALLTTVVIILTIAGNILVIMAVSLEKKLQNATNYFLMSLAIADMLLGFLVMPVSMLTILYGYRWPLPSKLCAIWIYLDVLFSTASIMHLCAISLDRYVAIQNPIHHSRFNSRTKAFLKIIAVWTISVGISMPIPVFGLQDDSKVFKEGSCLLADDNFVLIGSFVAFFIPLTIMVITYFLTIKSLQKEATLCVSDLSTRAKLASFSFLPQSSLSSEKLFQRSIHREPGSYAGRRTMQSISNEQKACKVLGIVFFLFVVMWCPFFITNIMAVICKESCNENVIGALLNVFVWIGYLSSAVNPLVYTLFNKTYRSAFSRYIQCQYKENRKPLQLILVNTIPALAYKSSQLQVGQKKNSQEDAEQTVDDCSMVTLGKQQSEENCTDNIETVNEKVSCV
Procedure: 2) Serotonin 5-HT2A Receptor Binding Assay
The assay was performed according to the method by Leysen J E et al. (Leysen J E, Niemegeers C J E, Van Nueten J M and Laduron P M. [3H] Ketanserin (R 41 468), a selective 3H-ligand for serotonin 2 receptor binding sites. Mol. Pharmacol., 1982, 21: 301-314).
Wistar male rats were decapitated, the brain was retrieved immediately and frontal cortex was taken out. It was homogenized in 0.25 M sucrose of a volume 10 times of the weight of the tissue using a Teflon glass homogenizer, and centrifuged at 4° C., 1,000×g for 10 minutes. The obtained supernatant was transferred to another centrifuge tube and suspended in 0.25 M sucrose of a volume 5 times of the weight of the tissue and the precipitate was centrifuged in the above-described condition. The obtained supernatant was combined with the supernatant obtained above and adjusted to a volume 40 times of the weight of the tissue with 50 mM Tris-hydrochloric acid buffer (pH 7.4), and centrifuged at 4° C., 35,000×g for 10 minutes. The obtained precipitate was suspended again in the above-described buffer of a volume 40 times of the weight of the tissue and centrifuged in the above-described condition. The obtained precipitate was suspended in the above-described buffer of a volume 20 times of the weight of the tissue and preserved by freezing at −85° C. till it was used for binding assay as a membrane specimen.
The binding assay was performed using 40 μl of the membrane specimen, 20 μl of [^3H]-Ketanserin (final concentration 1 to 3 nM), 20 μl of a test drug and 50 mM Tris-hydrochloric acid buffer (pH 7.4) so that the total amount was 200 μl (final dimethylsulfoxide concentration 1%). The reaction was performed at 37° C. for 20 minutes and terminated by conducting suction filtration with a cell harvester on a glass fiber filter plate.
The filter plate made of glass fiber was washed with 50 mM Tris-hydrochloric acid buffer (pH 7.4), and after dried, a microplate liquid scintillation cocktail was added and the radioactivity was measured with a microplate scintillation counter. Radioactivity in the presence of 10 μM spiperone was assumed as nonspecific binding.
(§1) IC50 value was calculated from concentration-dependent reaction using a non-linear analysis program. Ki value was calculated from IC50 value using Cheng-Prussoff formula.

Dopamine D2 receptor = target: T2, Dopamine D2 receptor (Rattus norvegicus, UniProt P61169); assay: Dopamine D2 receptor binding assay ([3H]-raclopride); details: Dopamine D2 receptor binding test, rat corpus striatum membrane, Ki calculated from IC50 by Cheng-Prussoff formula
T2 construct: from tissue; host or cells: Wistar rat brain, corpus striatum membranes
T2 sequence (P61169 whole entry): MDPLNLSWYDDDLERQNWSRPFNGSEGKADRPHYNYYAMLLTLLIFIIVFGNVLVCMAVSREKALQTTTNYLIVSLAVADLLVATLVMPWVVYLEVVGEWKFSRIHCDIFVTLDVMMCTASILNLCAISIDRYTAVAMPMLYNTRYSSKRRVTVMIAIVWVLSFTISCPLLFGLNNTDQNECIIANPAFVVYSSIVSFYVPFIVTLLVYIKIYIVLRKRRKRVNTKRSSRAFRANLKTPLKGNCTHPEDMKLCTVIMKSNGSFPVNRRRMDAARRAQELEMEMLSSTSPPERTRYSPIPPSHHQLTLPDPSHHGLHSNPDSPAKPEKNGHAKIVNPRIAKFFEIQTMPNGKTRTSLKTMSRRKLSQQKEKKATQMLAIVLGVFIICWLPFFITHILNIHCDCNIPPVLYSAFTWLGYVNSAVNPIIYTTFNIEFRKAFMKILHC
Procedure: 1) Dopamine D2 Receptor Binding Assay
The assay was performed according to the method by Kohler et al. (Kohler C, Hall H, Ogren S O and Gawell L, Specific in vitro and in vivo binding of 3H-raclopride. A potent substituted benzamide drug with high affinity for dopamine D-2 receptors in the rat brain. Biochem. Pharmacol., 1985; 34: 2251-2259).
Wistar male rats were decapitated, the brain was retrieved immediately and corpus striatum was taken out. It was homogenized in 50 mM tris(hydroxymethyl)aminomethane (Tris)-hydrochloric acid buffer (pH 7.4) of a volume 50 times of the weight of the tissue using a homogenizer with a high-speed rotating blade, and centrifuged at 4° C., 48,000×g for 10 minutes. The obtained precipitate was suspended again in the above-described buffer of a volume 50 times of the weight of the tissue and after incubated at 37° C. for 10 minutes, centrifuged in the above-described condition. The obtained precipitate was suspended in 50 mM (Tris)-hydrochloric acid buffer (containing 120 mM NaCl, 5 mM KCl, 2 mM CaCl2, 1 mM MgCl2, pH 7.4) of a volume 25 times of the weight of the tissue and preserved by freezing at −85° C. till it was used for binding assay as a membrane specimen.
The binding assay was performed using 40 μl of the membrane specimen, 20 μl of [^3H]-raclopride (final concentration 1 to 2 nM), 20 μl of a test drug and 50 mM Tris-hydrochloric acid buffer (containing 120 mM NaCl, 5 mM KCl, 2 mM CaCl2, 1 mM MgCl2, pH 7.4) so that the total amount was 200 μl (final dimethylsulfoxide concentration 1%). The reaction was performed at room temperature for 1 hour and terminated by conducting suction filtration with a cell harvester on a glass fiber filter plate. The filter plate made of glass fiber was washed with 50 mM Tris-hydrochloric acid buffer (pH 7.4), and after dried, a microplate liquid scintillation cocktail was added and the radioactivity was measured with a microplate scintillation counter. Radioactivity in the presence of 10 μM (+)-butaclamol hydrochloride was assumed as nonspecific binding.
as §1

| SMILES | Ki [1] [nM] | Ki (Dopamine D2 receptor) [nM] |
| --- | --- | --- |
| COc1cc(N2CCCC2=O)cc(CO)c1OCCCN1CCN(c2cccc3sccc23)CC1 [Example 359] | 1.1 | 0.2 |
| CCNC(=O)c1ccc(OCCCN2CCN(c3cccc4sccc34)CC2)nc1 [Example 26] | 0.8 | 2.6 |
| NC(=O)c1csc(OCCCN2CCN(c3cccc4sccc34)CC2)n1 [Example 7, 2-[3-(4-benzo[b]thiophen-4-yl-piperazin-1-yl)propoxy]thiazole-4-carboxamide] | 2.9 | 0.8 |
| c1cc(N2CCN(CCCOc3ccc(CN4CCOCC4)cc3)CC2)c2ccsc2c1 [Example 313] | 1.1 | 0.7 |
| O=C(c1ccc(OCCCN2CCN(c3cccc4sccc34)CC2)cc1)N1CCN(c2ccncc2)CC1 [Example 706] | 0.9 | 1 |
| COC(=O)Nc1ccc(OCCCN2CCN(c3cccc4sccc34)CC2)c(F)c1 [Example 363] | 1.1 | 2 |
| COc1cc(N2CCOC2=O)cc(C)c1OCCCN1CCN(c2cccc3sccc23)CC1 [Example 358] | 1.1 | 0.2 |
| CCNC(=O)c1csc(OCCCN2CCN(c3cccc4sccc34)CC2)n1 [Example 73] | 5.6 | 1.3 |
| COc1cc(NC=O)cc(C)c1OCCCN1CCN(c2cccc3sccc23)CC1 [Example 354] | 0.6 | 0.2 |
| CCNC(=O)c1cc(OCCCN2CCN(c3cccc4sccc34)CC2)n(C)n1 [Example 62] | 4.7 | 1.6 |
| CCNC(=O)c1cc(OCCCN2CCN(c3cccc4sccc34)CC2)no1 [Example 72] | 3.4 | 3.4 |
| CN1CCN(Cc2ccc(OCCCN3CCN(c4cccc5sccc45)CC3)cc2)CC1 [Example 314] | 0.8 | 0.8 |

Now from value to compound:

| Ki [1] [nM] | Ki (Dopamine D2 receptor) [nM] | SMILES |
| --- | --- | --- |
| 2.5 | 1 | CN(C)Cc1ccc(OCCCN2CCN(c3cccc4sccc34)CC2)c(Cl)c1 [Example 303] |
| 1.5 | 1.1 | Cn1cnc2cc(OCCCN3CCN(c4cccc5sccc45)CC3)ccc21 [Example 121] |
| 0.7 | 0.4 | CCN(CC)CCc1ccc(OCCCN2CCN(c3cccc4sccc34)CC2)cc1 [Example 368] |
| 0.8 | 0.2 | CCNCc1ccc(OCCCN2CCN(c3cccc4sccc34)CC2)cc1 [Example 286] |
| 1.4 | 2.5 | CCNC(=O)c1ccnc(OCCCN2CCN(c3cccc4sccc34)CC2)c1 [Example 32] |
| 3.1 | 2.1 | CN1CC(=O)N(C)c2ccc(OCCCN3CCN(c4cccc5sccc45)CC3)cc2C1=O [Example 1034] |
| 3.7 | 1.6 | Cc1cc(=O)oc2cc(OCCCN3CCN(c4cccc5sccc45)CC3)ccc12 [Example 115] |
| 7.7 | 1.9 | Cn1nc(C(N)=O)cc1OCCCN1CCN(c2cccc3sccc23)CC1 [Example 4, 5-[3-(4-benzo[b]thiophen-4-yl-piperazin-1-yl)propoxy]-1-methyl-1H-pyrazole-3-carboxamide] |
| 1.9 | 1.6 | CCS(=O)(=O)Nc1ccc(OCCCN2CCN(c3cccc4sccc34)CC2)cc1 [Example 345] |
| 0.6 | 0.3 | CNC(=O)c1ccc(OC)c(OCCCN2CCN(c3cccc4sccc34)CC2)c1 [Example 281] |
| 0.5 | 0.9 | CC(=O)Nc1ccc(OCCCN2CCN(c3cccc4sccc34)CC2)cc1 [Example 343] |
| 0.6 | 0.5 | CN(C)CCc1ccc(OCCCN2CCN(c3cccc4sccc34)CC2)cc1 [Example 382] |
| 1.4 | 0.7 | CN1Cc2ccc(OCCCN3CCN(c4cccc5sccc45)CC3)cc2C1=O [Example 123] |
| 3.9 | 2 | O=C1CCc2ccc(OCCCN3CCN(c4cccc5sccc45)CC3)cc21 [Example 125] |
| 3.3 | 1.6 | c1cc(N2CCN(CCCCOc3ccncc3)CC2)c2ccsc2c1 [Example 80] |
| 2.3 | 2.2 | Cn1c(=O)oc2cc(OCCCN3CCN(c4cccc5sccc45)CC3)ccc21 [Example 1016] |
